Data taken from US20110097274A1, “Carbon-11 and fluorine-18 labeled radioligands for positron emission tomography (PET) imaging for the brain serotonin transporters” (priority 2002, published 2011).
“And” between values parts separate entries of the source, which are not always exact repeats. Equal values may be shown once.

How the values were obtained:
[1] = humans, literature; cited from earlier work
SERT [2] = assay: Baboon PET imaging: brain uptake, kinetic analysis and SERT parameters; format: in vivo
Method in brief: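 Two isoflurane-anaesthetised adult male baboons, each radioligand tested twice (test-retest); i.v. bolus, 91 min 3D emission scan with arterial sampling, MRI-defined regions. Brain uptake as % ID g^−1, with peak time and washout; VT from one-tissue compartment model (K1/k2) using arterial plasma input.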

SERT [3] = molecular target: T1, SERT (Homo sapiens, UniProt P31645); details: cited from earlier work
T1 construct: consistent with values previously measured in six healthy humans (Parsey et al., 2000); host or cells: living human brain (PET, values quoted from Parsey et al. 2000, Ginovart et al. 2001)

[4] = BP = VT ROI − VT CER, baboons, mean ± SD of four experiments
[5] = Mean ± SD of four experiments in two baboons
[6] = baboons, mean ± SD of four experiments
[7] = last scan 90 minutes, baboons, mean ± SD of four experiments
[8] = one-tissue compartment model, baboons, mean ± SD of four experiments

T1 sequence (P31645 whole entry): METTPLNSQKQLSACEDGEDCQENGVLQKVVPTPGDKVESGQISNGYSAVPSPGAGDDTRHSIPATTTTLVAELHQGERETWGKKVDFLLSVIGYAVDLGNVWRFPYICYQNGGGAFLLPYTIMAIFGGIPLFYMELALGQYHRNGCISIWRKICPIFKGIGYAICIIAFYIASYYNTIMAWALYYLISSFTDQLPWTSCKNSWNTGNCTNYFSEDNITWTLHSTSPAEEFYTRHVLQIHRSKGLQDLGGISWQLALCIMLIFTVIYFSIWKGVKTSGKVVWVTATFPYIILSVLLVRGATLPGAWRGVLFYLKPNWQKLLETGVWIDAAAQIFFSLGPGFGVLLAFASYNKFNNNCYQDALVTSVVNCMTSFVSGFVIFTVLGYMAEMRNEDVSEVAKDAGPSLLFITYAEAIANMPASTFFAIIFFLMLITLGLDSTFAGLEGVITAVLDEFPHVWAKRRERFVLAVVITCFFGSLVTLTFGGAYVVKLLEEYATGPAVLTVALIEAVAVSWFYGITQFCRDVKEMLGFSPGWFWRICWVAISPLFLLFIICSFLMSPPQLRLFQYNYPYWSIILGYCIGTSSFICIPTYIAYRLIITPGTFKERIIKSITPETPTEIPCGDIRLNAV

SMILES: [11CH3]Sc1ccc([C@H]2CN3CCC[C@H]3c3ccccc32)cc1 [[^11C]McN 5652]
- Parent fraction in plasma at 30 minutes [1]: 59±10%
- Binding potential Cingulate Cortex (SERT [2]; [4]): 5.4 ± 0.8 mL/g
- Binding potential Hippocampus (SERT [2]; [4]): 9.5 ± 2.3 mL/g
- Binding potential Midbrain (SERT [2]; [4]): 25.9 ± 6.1 mL/g
- Binding potential Occipital Cortex (SERT [2]; [4]): 2.9 ± 1.6 mL/g
- Binding potential Striatum (SERT [2]; [4]): 17.6 ± 4.0 mL/g
- Binding potential Temporal Cortex (SERT [2]; [4]): 6.2 ± 1.8 mL/g
- Binding potential Thalamus (SERT [2]; [4]): 28.8 ± 6.9 mL/g
- Equilibrium specific to non-specific partition coefficient (V3″) Cingulate Cortex (SERT [2]; Baboon A, single experiment): 0.21 and 0.17
- Equilibrium specific to non-specific partition coefficient (V3″) Hippocampus (SERT [2]; Baboon A, single experiment): 0.41 and 0.29
- Equilibrium specific to non-specific partition coefficient (V3″) Midbrain (SERT [2]; Baboon A, single experiment): 1.16 and 0.78
- Equilibrium specific to non-specific partition coefficient (V3″) Occipital Cortex (SERT [2]; Baboon A, single experiment): 0.13 and 0.18
- Equilibrium specific to non-specific partition coefficient (V3″) Striatum (SERT [2]; Baboon A, single experiment): 0.81 and 0.49
- Equilibrium specific to non-specific partition coefficient (V3″) Temporal Cortex (SERT [2]; Baboon A, single experiment): 0.34 and 0.23
- Equilibrium specific to non-specific partition coefficient (V3″) Thalamus (SERT [2]; Baboon A, single experiment): 1.17 and 0.82
- Equilibrium specific to non-specific partition coefficient (V3″) Cingulate Cortex (SERT [2]; Baboon B, single experiment): 0.20
- Equilibrium specific to non-specific partition coefficient (V3″) Hippocampus (SERT [2]; Baboon B, single experiment): 0.38 and 0.30
- Equilibrium specific to non-specific partition coefficient (V3″) Midbrain (SERT [2]; Baboon B, single experiment): 1.00 and 0.80
- Equilibrium specific to non-specific partition coefficient (V3″) Occipital Cortex (SERT [2]; Baboon B, single experiment): 0.05 and 0.07
- Equilibrium specific to non-specific partition coefficient (V3″) Striatum (SERT [2]; Baboon B, single experiment): 0.66 and 0.60
- Equilibrium specific to non-specific partition coefficient (V3″) Temporal Cortex (SERT [2]; Baboon B, single experiment): 0.18 and 0.16
- Equilibrium specific to non-specific partition coefficient (V3″) Thalamus (SERT [2]; Baboon B, single experiment): 1.15 and 1.00
- Equilibrium specific to non-specific partition coefficient (V3″) Cingulate Cortex (SERT [2]; [5]): 0.19 and 0.19 ± 0.02
- Equilibrium specific to non-specific partition coefficient (V3″) Hippocampus (SERT [2]; [5]): 0.34 and 0.34 ± 0.06
- Equilibrium specific to non-specific partition coefficient (V3″) Midbrain (SERT [2]; [5]): 0.94 and 0.94 ± 0.18
- Equilibrium specific to non-specific partition coefficient (V3″) Occipital Cortex (SERT [2]; [5]): 0.11 and 0.11 ± 0.06
- Equilibrium specific to non-specific partition coefficient (V3″) Striatum (SERT [2]; [5]): 0.64 and 0.64 ± 0.13
- Equilibrium specific to non-specific partition coefficient (V3″) Temporal Cortex (SERT [2]; [5]): 0.23 and 0.23 ± 0.08
- Equilibrium specific to non-specific partition coefficient (V3″) Thalamus (SERT [2]; [5]): 1.04 and 1.04 ± 0.16
- K1, average of all regions and all animals (SERT [2]; baboons): 0.93 ± 0.18 mL/g/min
- VT, average of all regions and all animals (SERT [2]; baboons): 39.7 ± 11.8 mL/g
- k2, average of all regions and all animals (SERT [2]; baboons): 0.025 ± 0.008 min⁻¹
- Mean regional peak uptake time (SERT [2]; baboons, mean of all regions): 28 ± 12 min
- Mean regional wash-out (% decrease between peak time and last scan) (SERT [2]; baboons, mean of all regions): 24±13%
- Regional uptake peak time Cerebellum (SERT [2]; [6]): 15 ± 3 min
- Regional uptake peak time Cingulate Cortex (SERT [2]; [6]): 17 ± 3 min
- Regional uptake peak time Hippocampus (SERT [2]; [6]): 36 ± 8 min
- Regional uptake peak time Midbrain (SERT [2]; [6]): 39 ± 13 min
- Regional uptake peak time Occipital Cortex (SERT [2]; [6]): 17 ± 3 min
- Regional uptake peak time Striatum (SERT [2]; [6]): 34 ± 10 min
- Regional uptake peak time Temporal Cortex (SERT [2]; [6]): 27 ± 7 min
- Regional uptake peak time Thalamus (SERT [2]; [6]): 41 ± 6 min
- Total brain uptake at 45 min (SERT [2]; baboons, region encompassing the entire brain): 0.016±0.002 % ID g^−1
- Regional activity wash-out: % decrease from peak to last scan, Cerebellum (SERT [2]; [7]): 44 ± 6%
- Regional activity wash-out: % decrease from peak to last scan, Cingulate Cortex (SERT [2]; [7]): 34 ± 3%
- Regional activity wash-out: % decrease from peak to last scan, Hippocampus (SERT [2]; [7]): 16 ± 3%
- Regional activity wash-out: % decrease from peak to last scan, Midbrain (SERT [2]; [7]): 8 ± 5%
- Regional activity wash-out: % decrease from peak to last scan, Occipital Cortex (SERT [2]; [7]): 34 ± 3%
- Regional activity wash-out: % decrease from peak to last scan, Striatum (SERT [2]; [7]): 18 ± 7%
- Regional activity wash-out: % decrease from peak to last scan, Temporal Cortex (SERT [2]; [7]): 24 ± 6%
- Regional activity wash-out: % decrease from peak to last scan, Thalamus (SERT [2]; [7]): 12 ± 4%
- K1 Cerebellum (SERT [2]; [8]): 1.05 ± 0.20 mL/g/min
- K1 Cingulate Cortex (SERT [2]; [8]): 1.01 ± 0.24 mL/g/min
- K1 Hippocampus (SERT [2]; [8]): 0.74 ± 0.12 mL/g/min
- K1 Midbrain (SERT [2]; [8]): 0.92 ± 0.12 mL/g/min
- K1 Occipital Cortex (SERT [2]; [8]): 0.95 ± 0.18 mL/g/min
- K1 Striatum (SERT [2]; [8]): 0.95 ± 0.12 mL/g/min
- K1 Temporal Cortex (SERT [2]; [8]): 0.83 ± 0.19 mL/g/min
- K1 Thalamus (SERT [2]; [8]): 1.03 ± 0.15 mL/g/min
- K2 Cerebellum (SERT [2]; [8]): 0.038 ± 0.007 min⁻¹
- K2 Cingulate Cortex (SERT [2]; [8]): 0.031 ± 0.007 min⁻¹
- K2 Hippocampus (SERT [2]; [8]): 0.020 ± 0.003 min⁻¹
- K2 Midbrain (SERT [2]; [8]): 0.017 ± 0.003 min⁻¹
- K2 Occipital Cortex (SERT [2]; [8]): 0.031 ± 0.006 min⁻¹
- K2 Striatum (SERT [2]; [8]): 0.021 ± 0.003 min⁻¹
- K2 Temporal Cortex (SERT [2]; [8]): 0.025 ± 0.006 min⁻¹
- K2 Thalamus (SERT [2]; [8]): 0.019 ± 0.003 min⁻¹
- VT Cerebellum (VT CER, nonspecific distribution volume) (SERT [2]; [8]): 27.7 ± 4.0 mL/g
- VT Cingulate Cortex (SERT [2]; [8]): 33.1 ± 4.7 mL/g
- VT Hippocampus (SERT [2]; [8]): 37.2 ± 5.9 mL/g
- VT Midbrain (SERT [2]; [8]): 53.6 ± 9.3 mL/g
- VT Occipital Cortex (SERT [2]; [8]): 30.6 ± 3.9 mL/g
- VT Striatum (SERT [2]; [8]): 45.3 ± 7.0 mL/g
- VT Temporal Cortex (SERT [2]; [8]): 33.9 ± 4.2 mL/g
- VT Thalamus (SERT [2]; [8]): 56.5 ± 10.3 mL/g
- V3″ medial prefrontal cortex (SERT [3]; humans (Parsey et al., 2000)): 0.08
- V3″ cingulate cortex (SERT [3]; humans, literature): 0.21
- V3″ hippocampus (SERT [3]; humans, literature): 0.49
- V3″ midbrain (SERT [3]; humans, literature): 1.63
- V3″ occipital cortex (SERT [3]; humans, literature): 0.17
- V3″ striatum (SERT [3]; humans, literature): 1.03
- V3″ temporal cortex (SERT [3]; humans, literature): 0.22
- V3″ thalamus (SERT [3]; humans, literature): 0.92
- VT CER (cerebellum distribution volume) (SERT [3]; humans, literature): 17.8 ± 1.9 mL/g and 11.9 ± 3.3 mL/g
- Data acquisition required for time-independent / stable VT or BP estimates (SERT [3]; humans, regions with high SERT density such as the midbrain (Parsey et al., 2000)): at least 120 minutes
